Data reported in US12077503B2, “Substituted cyclic amides and their use as herbicides” (FMC CORPORATION, priority 2015, dated 2024).

What was measured:
Format in all cases: in vivo
[1] = test system: ducksalad (Heteranthera limosa); test: Test B flooded paddy test; conditions: Heteranthera limosa, 360 h, Flood, 250 g ai/ha; visually evaluated after 13 to 15 d; read-out: Plant response rating, Ducksalad (0 to 100 scale where 0 is no effect and 100 is complete control)
Procedure, shortened: (§1)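 Percent control, visually estimated after 13–15 d in the greenhouse on a 0–100 basis, compares treated pots with untreated ones; compound was put into paddy water 3 cm above the soil when plants had two leaves.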

[2] = test system: sedge, umbrella (small-flower umbrella sedge, Cyperus difformis); test: Test B flooded paddy test; conditions: Cyperus difformis, 360 h, Flood, 250 g ai/ha; visually evaluated after 13 to 15 d; read-out: Plant response rating, Sedge, Umbrella (0 to 100 scale where 0 is no effect and 100 is complete control)
Procedure, shortened: as §1

[3] = test system: barnyardgrass (Echinochloa crus-galli); test: Test B flooded paddy test; conditions: Echinochloa crus-galli, 360 h, Flood, 250 g ai/ha; visually evaluated after 13 to 15 d; read-out: Plant response rating, Barnyardgrass (0 to 100 scale where 0 is no effect and 100 is complete control)
Procedure, shortened: as §1

[4] = test system: rice (Oryra sativa); test: Test B flooded paddy test; conditions: Oryza sativa, 360 h, Flood, 250 g ai/ha; visually evaluated after 13 to 15 d; read-out: Plant response rating, Rice (0 to 100 scale where 0 is no effect and 100 is complete control)
Procedure, shortened: as §1

[5] = test system: pigweed (Amaranthus retroflexus); test: Test A preemergence; conditions: Amaranthus retroflexus, pre-emergence, 240 h, Preemergence
[6] = test system: ragweed (common ragweed, Ambrosia elatior); test: Test A preemergence; conditions: Ambrosia artemisiifolia, pre-emergence, 240 h, Preemergence
Procedure, shortened: (§2)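 Ratings of 0 (no effect) to 100 (complete control) come from visual comparison with untreated controls roughly 10 d after treatment. Test chemicals, formulated in a non-phytotoxic solvent mixture with surfactant, were applied either as a preemergence directed soil spray on seeded soil or postemergence to one- to two-leaf plants 2 to 10 cm tall.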

[7] = test system: giant foxtail (Setaria faberii); test: Test A preemergence; conditions: Setaria faberi, pre-emergence, 240 h, Preemergence
Procedure, shortened: as §2

[8] = test system: Kochia (Kochia scoparia); test: Test A preemergence; conditions: Bassia scoparia, pre-emergence, 240 h, Preemergence
Procedure, shortened: as §2

[9] = test system: ryegrass, Italian (Italian ryegrass, Lolium multiflorum); test: Test A preemergence; conditions: Lolium multiflorum, pre-emergence, 240 h, Preemergence
Procedure, shortened: as §2

[10] = test system: barnyardgrass (Echinochloa crus-galli); test: Test A preemergence; conditions: Echinochloa crus-galli, pre-emergence, 240 h, Preemergence
Procedure, shortened: as §2

[11] = test system: Galium (catchweed bedstraw, Galium aparine); test: Test A postemergence; conditions: Galium, post-emergence, 240 h, Postemergence, read-out: Galium plant response rating (0 to 100 scale)
Procedure, shortened: as §2

[12] = test system: pigweed (Amaranthus retroflexus); test: Test A postemergence; conditions: Amaranthus retroflexus, post-emergence, 240 h, Postemergence, read-out: Pigweed plant response rating (0 to 100 scale)
Procedure, shortened: as §2

[13] = test system: ragweed (common ragweed, Ambrosia elatior); test: Test A postemergence; conditions: Ambrosia artemisiifolia, post-emergence, 240 h, Postemergence, read-out: Ragweed plant response rating (0 to 100 scale)
Procedure, shortened: as §2

[14] = test system: giant foxtail (Setaria faberii); test: Test A postemergence; conditions: Setaria faberi, post-emergence, 240 h, Postemergence, read-out: Foxtail, Giant plant response rating (0 to 100 scale)
Procedure, shortened: as §2

[15] = test system: corn (Zea mays); test: Test A postemergence; conditions: Zea mays, post-emergence, 240 h, Postemergence, read-out: Corn plant response rating (0 to 100 scale)
Procedure, shortened: as §2

[16] = test system: Kochia (Kochia scoparia); test: Test A postemergence; conditions: Bassia scoparia, post-emergence, 240 h, Postemergence, read-out: Kochia plant response rating (0 to 100 scale)
Procedure, shortened: as §2

[17] = test system: ryegrass, Italian (Italian ryegrass, Lolium multiflorum); test: Test A postemergence; conditions: Lolium multiflorum, post-emergence, 240 h, Postemergence, read-out: Ryegrass, Italian plant response rating (0 to 100 scale)
Procedure, shortened: as §2

[18] = test system: wheat (Triticum aestivum); test: Test A postemergence; conditions: Triticum aestivum, post-emergence, 240 h, Postemergence, read-out: Wheat plant response rating (0 to 100 scale)
Procedure, shortened: as §2

[19] = test system: barnyardgrass (Echinochloa crus-galli); test: Test A postemergence; conditions: Echinochloa crus-galli, post-emergence, 240 h, Postemergence
Procedure, shortened: as §2

[20] = test system: blackgrass (Alopecurus myosuroides); test: Test A postemergence; conditions: Alopecurus myosuroides, post-emergence, 240 h, Postemergence, read-out: Blackgrass plant response rating (0 to 100 scale)
Procedure, shortened: as §2

[21] = 125 g ai/ha, visual rating about 10 d after treatment
[22] = 31 g ai/ha, 0 is no effect, 100 is complete control

Cc1ccc([C@H]2CN(C)C(=O)[C@@H]2C(=O)Nc2cccc(F)n2)cc1 [Compound 1375] gave a pest or weed control at 250 g/ha [1] of 95%, a pest or weed control at 250 g/ha [2] of 0% and a pest or weed control at 250 g/ha [3] of 70%. It also gave a pest or weed control at 250 g/ha [4] of 0%, a pest or weed control at 31 g/ha ([5]; 31 g ai/ha, 0 to 100 scale where 0 is no effect and 100 is complete control, read-out: Pigweed plant response rating) of 0% and a pest or weed control at 125 g/ha ([5]; 125 g ai/ha, 0 to 100 scale (0 no effect, 100 complete control), read-out: Plant response rating, Pigweed) of 0%. For the same compound, the pest or weed control at 31 g/ha ([6]; 31 g ai/ha, 0 to 100 scale where 0 is no effect and 100 is complete control, read-out: Ragweed plant response rating) was 40%, the pest or weed control at 125 g/ha ([6]; 125 g ai/ha, 0 to 100 scale (0 no effect, 100 complete control), read-out: Plant response rating, Ragweed) was 70% and the pest or weed control at 31 g/ha ([7]; 31 g ai/ha, 0 to 100 scale where 0 is no effect and 100 is complete control, read-out: Foxtail, Giant plant response rating) was 90%. The pest or weed control at 125 g/ha ([7]; 125 g ai/ha, 0 to 100 scale (0 no effect, 100 complete control), read-out: Plant response rating, Foxtail, Giant) was 100%, the pest or weed control at 31 g/ha ([8]; 31 g ai/ha, 0 to 100 scale where 0 is no effect and 100 is complete control, read-out: Kochia plant response rating) was 50% and the pest or weed control at 125 g/ha ([8]; 125 g ai/ha, 0 to 100 scale (0 no effect, 100 complete control), read-out: Plant response rating, Kochia) was 70%. It also gave a pest or weed control at 31 g/ha ([9]; 31 g ai/ha, 0 to 100 scale where 0 is no effect and 100 is complete control, read-out: Ryegrass, Italian plant response rating) of 0%, a pest or weed control at 125 g/ha ([9]; 125 g ai/ha, 0 to 100 scale (0 no effect, 100 complete control), read-out: Plant response rating, Ryegrass, Italian) of 70% and a pest or weed control at 31 g/ha ([10]; 31 g ai/ha, 0 to 100 scale where 0 is no effect and 100 is complete control, read-out: Barnyardgrass plant response rating) of 90%. For the same compound, the pest or weed control at 125 g/ha ([10]; 125 g ai/ha, 0 to 100 scale (0 no effect, 100 complete control), read-out: Plant response rating, Barnyardgrass) was 100%, the pest or weed control at 125 g/ha [11, 21] was 50% and the pest or weed control at 31 g/ha [11, 22] was 20%. The pest or weed control at 125 g/ha [12, 21] was 0%, the pest or weed control at 31 g/ha [12, 22] was 0% and the pest or weed control at 125 g/ha [13, 21] was 20%. It also gave a pest or weed control at 31 g/ha [13, 22] of 0%, a pest or weed control at 125 g/ha [14, 21] of 90% and a pest or weed control at 31 g/ha [14, 22] of 70%. The plant injury at 125 g/ha [15, 21] was 30%, the plant injury at 31 g/ha [15, 22] was 0% and the pest or weed control at 125 g/ha [16, 21] was 50%. It also gave a pest or weed control at 31 g/ha [16, 22] of 30%, a pest or weed control at 125 g/ha [17, 21] of 20% and a pest or weed control at 31 g/ha [17, 22] of 0%. The plant injury at 125 g/ha [18, 21] was 30%, the plant injury at 31 g/ha [18, 22] was 0% and the pest or weed control at 125 g/ha ([19]; 125 g ai/ha, visual rating about 10 d after treatment, read-out: Barnyardgrass plant response rating (0 to 100 scale, 0 no effect, 100 complete control)) was 100%. For the same compound, the pest or weed control at 31 g/ha ([19]; 31 g ai/ha, 0 is no effect, 100 is complete control, read-out: Barnyardgrass plant response rating (0 to 100 scale)) was 70%, the pest or weed control at 125 g/ha [20, 21] was 40% and the pest or weed control at 31 g/ha [20, 22] was 0%.
